Values after ≈ are worked out from the molar mass of the structure shown.
Columns and labels:
Type in all cases: functional
Conditions in all cases: read-out: ED50 (the source's name)
[1] = system: MCF7; assay: Cytotoxicity against human MCF7 cells
[2] = system: SR; assay: Cytotoxicity against human SR cells
[3] = system: HOP-92; assay: Cytotoxicity against human HOP92 cells
[4] = system: HL-60; assay: Cytotoxicity against human HL-60(TB) cells
[5] = system: RPMI-8226; assay: Cytotoxicity against human RPMI8226 cells
[6] = system: K562; assay: Cytotoxicity against human K562 cells
[7] = system: IGROV-1; assay: Cytotoxicity against human IGROV1 cells
[8] = system: CCRF-CEM; assay: Cytotoxicity against human CCRF-CEM cells
[9] = system: BT-549; assay: Cytotoxicity against human BT549 cells

## C=C1C(=O)O[C@@H]2O[C@@]3(C)CC[C@H]4[C@H](C)CC[C@@H]1[C@@]24O3 [DEOXYARTEMISITENE]
[1]
  EC50: 1.46 µg/mL (≈ 5.52 µM)
[2]
  EC50: 1.89 µg/mL (≈ 7.15 µM)
[3]
  EC50: 0.92 µg/mL (≈ 3.48 µM)
[4]
  EC50: 0.69 µg/mL (≈ 2.61 µM)
[5]
  EC50: 1.68 µg/mL (≈ 6.36 µM)
[6]
  EC50: 0.94 µg/mL (≈ 3.56 µM)
[7]
  EC50: 0.89 µg/mL (≈ 3.37 µM)
[8]
  EC50: 0.92 µg/mL (≈ 3.48 µM)
[9]
  EC50: 1.97 µg/mL (≈ 7.45 µM)
